According to patent US20240009116A1, “DRUG DELIVERY SYSTEM COMPRISING A NON-STEROIDAL ANTI-INFLAMMATORY (NSAID) AND A PROGESTOGENIC COMPOUND AND METHODS FOR MANUFACTURING” (Bayer OY, priority 2015, published 2024):

Assay: Polymorph form during filament preparation and printing (i.a. X-ray diffraction)
Type: physicochemical
Description: As drug indomethacin was used. Indomethacin can appear in different polymorphic forms, which are differently bioavailable. In the current examples the stable form y-indomethacin was used. […] Other NSAID's such as meloxicam, piroxicam, naproxen, celecoxib, diclofenac, tenoxicam, nimesulide, lornoxicam and indomethacin are likewise suitable, of which indomethacin is particularly preferred.

COc1ccc2c(c1)c(CC(=O)O)c(C)n2C(=O)c1ccc(Cl)cc1 [y-indomethacin, indomethacin]
polymorph form stability: the polymorph form does not change during filament preparation and printing
